Test system: Staphylococcus aureus
Assay: Replicate-well microdilution growth test (32 replicates per antibiotic concentration), growth ranked by viability in culture and direct epifluorescence
Assay type: cell-based
Conditions: for growth response of replicate wells: 5 hours at 37° C.
From the text: Format: In general terms the entire series of tests followed the methods for use of microdilution plates. Each of the eight antibiotic concentrations was represented by 32 replicate wells, thus amounting to 8×32[256] test wells in a three plate array.
Organisms: Two cultures of Staphylococcus aureus, with one isolated from plates containing penicillin supplemented agar to provide cells of known β lactamase activity.
Inoculum: A target level of 10^2 cells/wells was selected to test an adequate number of organisms within each treatment. In the examples 2-4 the aim was to include an increasing proportion of resistant/β lactamase positive cells. Preparation by dilutions at these levels will undoubtedly be prone to errors.
Incubation: Sealed plates incubated for 5 hours at 37° C. [previously shown to provide significant growth]. At the end of incubation well contents […] were transferred to 200 μl using individual sterile pipette tips [i.e. one/well].
A 100 μl sample of diluted well contents was plated and spread on culture plates. The growth, corresponding to the situation at 5 hours, was assessed after incubation of the culture plates overnight.
ii. Direct Epifluorescence Method
A second 100 μl sample was filtered through a commercially available 0.2μ nuclepore membrane. This non-fluorescent, black filter was supported on a 5.0μcellulosic membrane filter. Discrete 3.0 mm diameter filter zones were created by attaching pre-punched black adhesive tape to the membranes. After filtration the zones were stained with 0.01% w/v Acriflavine™ in phosphate buffer at pH 7.2 [filtered immediately before use]. Direct observation, using an epifluorescence microscope resembles the DEFT method described by Pettifer G L Rodrigues U K [1982] J.Appl.Bact. 53:323-329. Using a large numerical aperture×45 objective it is relatively simple to rank the estimated density of growth.
The viability test depicts growth responses in terms of organisms recovered and subsequently able to produce colonies on a secondary culture plate. Direct epifluorescence/filtration does constitute rapid detection but in this manual form is both cumbersome and labour intensive. Within these constraints both methods served to assign rankings to the growth response of every well. The two methods were adequate to indicate the presence of growth.

## Penicillin
Example 1 (no resistant cells added), antibiotic levels higher than 0.015 μg/ml
  growth response of replicate wells: no evidence of growth
Examples 1-4, antibiotic concentration 0.004 μg/ml, 32 replicate wells
  growth response of replicate wells: all 32 replicate wells exhibit continued growth
Examples 1-4, antibiotic concentration 0.015 μg/ml
  growth response of replicate wells: the population in some wells exhibits sensitivity
Examples 2, 3 and 4 (inoculum with increasing proportion of resistant/β lactamase positive cells)
  growth response of replicate wells: an appreciable number of wells show low grade growth
Examples 2, 3 and 4, antibiotic concentration 0.250 μg/ml
  sensitivity of resistant sub-populations in some wells: insensitive

— patent US20030077689A1, “Microbial growth variations” (priority 1999, published 2003)
